{"source": "patent US20170003277A1", "about": "(priority 2015, published 2017)", "key": {"human PBMC": {"tested_on": "human PBMC", "experiment": "Immunological cell type enrichment for genes modulated by GA in human PBMC", "format": "in vivo", "design": "Score: scale not given here", "text": "Genome-wide expression profiles in cells from three different datasets in two different species (human, mouse) were studied. LIMMA was utilized to identify a genome-wide list of differentially expressed genes induced by GA in the primed and ex vivo stimulated mouse splenocytes, as well as in the THP-1 human monocyte cell line. Repeated-measures ANOVA was utilized to find a genome-wide list of genes modulated by GA in treated MS patients. Advanced enrichment algorithms were then applied to elucidate the pathways and cell types modulated by GA.\nIn addition to the shared induced effects discussed above, each system and platform clearly captured different aspects of GA's impact on the immune system. […] In human PBMCs, genes associated with immune cell types were modulated early in treatment (by month 3), including certain cell types affected in prior systems, but also distinct cell types, such as megakaryocytes and myeloid progenitors (Table 11)."}, "mouse splenocytes": {"tested_on": "mouse splenocytes", "experiment": "Microarray gene expression of splenocytes from Copaxone- or Polimunol-immunized mice activated ex vivo with Copaxone or Polimunol", "format": "cell-based", "experimental": "All experimental procedures conformed to accepted ethical standards for use of animals in research and were in accordance with Committee for the Care and Use of Experimental Animals guidelines and approved by the Teva Institutional Animal Care and Use Committee. For these experiments, 8- to 12-week-old female (Balb/c X SJL) F1 mice (Janvier, France) were purchased. Mice were kept at 21±3° C.; the relative humidity was 30-70%, the light/dark cycle was 12/12 h. Animals were maintained on a standard rodent pellet diet and sterile filtered tap water available ad libitum.\nTo stimulate induction of GA-reactive T cells, twelve mice were injected with 100 μL of a 2.5 mg/mL solution of GA reference standard (GA-RS) in phosphate-buffered saline (250 μg GARS per mouse). GA-RS (Teva) is a selected GA drug substance batch defined as the standard batch and used as a reference in quality control release tests of all Copaxone® batches. Another group of twelve mice were injected with 100 μL of a 2.5 mg/mL solution of Polimunol in phosphate-buffered saline (250 μg Polimunol per mouse). Polimunol is a proposed generic manufactured a company other than Teva. […] A single cell suspension was prepared. After red blood cells lysis, splenocytes from the same immunization group were pulled and resuspended to a final concentration of 10×10^6 cells/mL in defined cell culture media (DCCM1) (Biological Industries, Beit Haemek, Israel) (96.7% v/v) enriched with L-glutamine 2 mM (1% v/v), MEM Non-Essential Amino Acids 2 mM (1% v/v), sodium pyruvate 1 mM (1% v/v), antibiotic/antimycotic solution (0.2% v/v) and 2-mercaptoethanol 50 mM (0.1% v/v).\nSplenocytes were treated with activator samples diluted in medium (125 μL per well of 80 μg/mL solutions, final concentration in the well: 40 μg/mL) of: i) 3 different batches of GA drug product manufactured by Teva ii) one batch of proposed generic (Polimunol). Polimunol is a product marketed as generic GA and manufactured by a company other than Teva (i.e. Synthon). […] Splenocytes (125 μL 10×10^6 SPL cell/mL suspension) were added to the activator solutions. Each activator sample was loaded in two different plates. One for the cells from mice immunized with GA and one for cells from mice immunized with proposed generic. Plates were incubated for 24 h at 37° C. Cells were collected from the wells and were centrifuged at 300 g for 5 minutes. Supernatants were aspirated and cell pellets were resuspended in RLT buffer (from RNeasy mini kit of Qiagen, Cat #74106) for cell lysis. The cell lysates were centrifuged and supernatants were collected and frozen at −70° C. Samples were sent for further processing.\nFor additional detail on experimental methods used in mouse studies, please refer to publications [Bakshi et al; Towfic et al]. Note that in this study, mice were immunized with either Copaxone® or Polimunol, and subsequently splenocytes were isolated and treated ex vivo with Copaxone® or Polimunol. RNA was extracted and expression profiled across the entire genome using the Affymetrix Mouse Genome 430 2 chip. Three lots of Copaxone®, and one lot of Polimunol were comparatively tested in six replicates each.\nOutlier samples were identified using the R package ArrayQCMetrics and excluded from further data processing steps. A sample was considered an outlier if it failed more than half of the included tests either before or after RMA normalization. Data were RMA normalized using the Affy R package.\nCorrection for batch variation was performed using ComBat as described above (THP-1 methods). Date of microarray experiment was used as batch, and the combination of treatment and immunization was used as covariate.\nDifferentially expressed probesets were identified across conditions using linear models for microarray data (LIMMA; Smyth, G. K. (2004)), a standard R Bioconductor package. Linear models and empirical Bayes methods for assessing differential expression in microarray experiments. […]"}, "[1]": {"conditions": "BASO1.rnk, Upregulated, Cluster 2"}, "[2]": {"conditions": "BCELLA1.rnk, Downregulated, Cluster 0"}, "[3]": {"conditions": "BCELLA2.rnk, Downregulated, Cluster 0"}, "[4]": {"conditions": "BCELLA3.rnk, Downregulated, Cluster 0"}, "[5]": {"conditions": "BCELLA4.rnk, Downregulated, Cluster 0"}, "[6]": {"conditions": "CMP.rnk, Upregulated, Cluster 4"}, "[7]": {"conditions": "EOS2.rnk, Upregulated, Cluster 2"}, "[8]": {"conditions": "ERY1.rnk, Upregulated, Cluster 2"}, "[9]": {"conditions": "ERY1.rnk, Upregulated, Cluster 4"}, "[10]": {"conditions": "ERY2.rnk, Upregulated, Cluster 2"}, "[11]": {"conditions": "ERY2.rnk, Upregulated, Cluster 4"}, "[12]": {"conditions": "ERY3.rnk, Upregulated, Cluster 2"}, "[13]": {"conditions": "ERY3.rnk, Upregulated, Cluster 4"}, "[14]": {"conditions": "ERY4.rnk, Upregulated, Cluster 2"}, "[15]": {"conditions": "ERY4.rnk, Upregulated, Cluster 4"}, "[16]": {"conditions": "ERY5.rnk, Upregulated, Cluster 2"}, "[17]": {"conditions": "ERY5.rnk, Upregulated, Cluster 4"}, "[18]": {"conditions": "GMP.rnk, Upregulated, Cluster 4"}, "[19]": {"conditions": "GRAN1.rnk, Upregulated, Cluster 2"}, "[20]": {"conditions": "GRAN2.rnk, Upregulated, Cluster 4"}, "[21]": {"conditions": "HSC3.rnk, Upregulated, Cluster 4"}, "[22]": {"conditions": "MEGA1.rnk, Upregulated, Cluster 4"}, "[23]": {"conditions": "MEGA2.rnk, Upregulated, Cluster 0"}, "[24]": {"conditions": "MEGA2.rnk, Upregulated, Cluster 4"}, "[25]": {"conditions": "MEP.rnk, Upregulated, Cluster 2"}, "[26]": {"conditions": "PRE_BCELL3.rnk, Upregulated, Cluster 2"}}}
{"substance": "glatiramer acetate [Copaxone®]", "values": [{"measurement": "Score", "setting": "human PBMC; [1]", "value": 87.3}, {"measurement": "p.val", "setting": "human PBMC; [1]", "value": 0.00322}, {"measurement": "Score", "setting": "human PBMC; [2]", "value": "−19.11"}, {"measurement": "p.val", "setting": "human PBMC; [2]", "value": 0.002737}, {"measurement": "Score", "setting": "human PBMC; [3]", "value": "−25.77"}, {"measurement": "p.val", "setting": "human PBMC; [3]", "value": 0.0004201}, {"measurement": "Score", "setting": "human PBMC; [4]", "value": "−20.11"}, {"measurement": "p.val", "setting": "human PBMC; [4]", "value": 0.001385}, {"measurement": "Score", "setting": "human PBMC; [5]", "value": "−21.51"}, {"measurement": "p.val", "setting": "human PBMC; [5]", "value": 0.002538}, {"measurement": "Score", "setting": "human PBMC; [6]", "value": 23.19}, {"measurement": "p.val", "setting": "human PBMC; [6]", "value": 0.002214}, {"measurement": "Score", "setting": "human PBMC; [7]", "value": 62.69}, {"measurement": "p.val", "setting": "human PBMC; [7]", "value": 0.002286}, {"measurement": "Score", "setting": "human PBMC; [8]", "value": 28.25}, {"measurement": "p.val", "setting": "human PBMC; [8]", "value": 0.003043}, {"measurement": "Score", "setting": "human PBMC; [9]", "value": 45}, {"measurement": "p.val", "setting": "human PBMC; [9]", "value": 0.002587}, {"measurement": "Score", "setting": "human PBMC; [10]", "value": 32.83}, {"measurement": "p.val", "setting": "human PBMC; [10]", "value": "8.43E−05"}, {"measurement": "Score", "setting": "human PBMC; [11]", "value": 47.25}, {"measurement": "p.val", "setting": "human PBMC; [11]", "value": "4.70E−06"}, {"measurement": "Score", "setting": "human PBMC; [12]", "value": 84.62}, {"measurement": "p.val", "setting": "human PBMC; [12]", "value": 0.0002869}, {"measurement": "Score", "setting": "human PBMC; [13]", "value": 90.02}, {"measurement": "p.val", "setting": "human PBMC; [13]", "value": 0.009061}, {"measurement": "Score", "setting": "human PBMC; [14]", "value": 69.44}, {"measurement": "p.val", "setting": "human PBMC; [14]", "value": 0.0001417}, {"measurement": "Score", "setting": "human PBMC; [15]", "value": 77.38}, {"measurement": "p.val", "setting": "human PBMC; [15]", "value": 0.001966}, {"measurement": "Score", "setting": "human PBMC; [16]", "value": 64.23}, {"measurement": "p.val", "setting": "human PBMC; [16]", "value": "9.88E−07"}, {"measurement": "Score", "setting": "human PBMC; [17]", "value": 73.42}, {"measurement": "p.val", "setting": "human PBMC; [17]", "value": 0.0009808}, {"measurement": "Score", "setting": "human PBMC; [18]", "value": 33.13}, {"measurement": "p.val", "setting": "human PBMC; [18]", "value": 0.0001427}, {"measurement": "Score", "setting": "human PBMC; [19]", "value": 55.17}, {"measurement": "p.val", "setting": "human PBMC; [19]", "value": 0.0005577}, {"measurement": "Score", "setting": "human PBMC; [20]", "value": 35.18}, {"measurement": "p.val", "setting": "human PBMC; [20]", "value": 0.00875}, {"measurement": "Score", "setting": "human PBMC; [21]", "value": 45.41}, {"measurement": "p.val", "setting": "human PBMC; [21]", "value": 0.0002875}, {"measurement": "Score", "setting": "human PBMC; [22]", "value": 38.05}, {"measurement": "p.val", "setting": "human PBMC; [22]", "value": "4.66E−09"}, {"measurement": "Score", "setting": "human PBMC; [23]", "value": 32.43}, {"measurement": "p.val", "setting": "human PBMC; [23]", "value": "1.24E−12"}, {"measurement": "Score", "setting": "human PBMC; [24]", "value": 64.46}, {"measurement": "p.val", "setting": "human PBMC; [24]", "value": "4.41E−12"}, {"measurement": "Score", "setting": "human PBMC; [25]", "value": 30.54}, {"measurement": "p.val", "setting": "human PBMC; [25]", "value": 0.009388}, {"measurement": "Score", "setting": "human PBMC; [26]", "value": 57.94}, {"measurement": "p.val", "setting": "human PBMC; [26]", "value": "3.98E−08"}, {"measurement": "Foxp3 expression", "setting": "mouse splenocytes; Copaxone immunization, adj p<3.4e-23", "value": "upregulated"}, {"measurement": "Gpr83 expression", "setting": "mouse splenocytes; Copaxone immunization, two probesets, adj p<4.2e-33 and 9.0e-31", "value": "upregulated"}, {"measurement": "Probesets downregulated by Copaxone relative to medium", "setting": "mouse splenocytes; Copaxone-immunized mice", "value": "8,305"}, {"measurement": "Probesets downregulated by Copaxone relative to medium, |FC|≧2", "setting": "mouse splenocytes; Copaxone-immunized mice", "value": 485}, {"measurement": "Probesets significantly modulated by Copaxone relative to medium", "setting": "mouse splenocytes; Copaxone-immunized mice", "value": "16,647"}, {"measurement": "Probesets upregulated by Copaxone relative to medium", "setting": "mouse splenocytes; Copaxone-immunized mice", "value": "8,342"}, {"measurement": "Probesets upregulated by Copaxone relative to medium, |FC|≧2", "setting": "mouse splenocytes; Copaxone-immunized mice", "value": 411}]}
